These results are taken from ChEMBL document CHEMBL1201862, “PubChem BioAssay data set” (2004).

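Protocol summary: plate cells (96-well), add compound at 5 concentrations, incubate 48 h, interpolate endpoints linearly. GI50 is the concentration that inhibits growth by half.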 Activity calls are given as the source filed them. No stated cut-off is given here; in the data, active = GI50 up to about 1.1 µM and inactive = higher. A value given as a limit tells only on which side of the number the result lay.

Test systems include 786-0; A549; CCRF-CEM; DU-145; EKVX; HCC 2998; IGROV-1; KM12; MDA-N; MOLT-4; NCI-H522; OVCAR-4; OVCAR-5; SF-268; SK-MEL-5; SNB-75; TK-10; UACC-62; UO-31; COLO 205.
Common to all, as to experiment: NCI tumour cell line growth inhibition, 48 h

As for `c1ccc2sc(SCSc3nc4ccccc4s3)nc2c1`, the GI50 in the experiment on 786-0 is 82.4 µM (inactive); in the experiment on A549 it was 81.3 µM (inactive); in the experiment with CCRF-CEM it was 47.4 µM (inactive); with DU-145 it was > 100 µM (inactive); in the experiment on EKVX, 50.1 µM (inactive); in the experiment on HCC 2998, 75.9 µM (inactive). In addition, the GI50 in the experiment on IGROV-1 was > 100 µM (inactive); in the experiment on KM12, > 100 µM (inactive); in the experiment with MDA-N, 76.2 µM (inactive); in the experiment on MOLT-4 it was 8.81 µM (inactive); in the experiment on NCI-H522 it was 57.8 µM (inactive); in the experiment on OVCAR-4 it was > 100 µM (inactive). In addition, the GI50 in the experiment with OVCAR-5 was > 100 µM (inactive); in the experiment with SF-268 it was > 100 µM (inactive); in the experiment on SK-MEL-5, 30.1 µM (inactive); with SNB-75 it was > 100 µM (inactive); in the experiment with TK-10, 66.4 µM (inactive); with UACC-62, 71 µM (inactive). In addition, in the experiment with UO-31, the GI50 is 86.1 µM (inactive).

Regarding `CCOC(=O)C1(C#N)C2(C#N)C(N)=NC(ON=C(C)C)(ON=C(C)C)C12C#N` (stereo not drawn), the GI50 with 786-0, in the experiment with A549, in the experiment on CCRF-CEM, in the experiment on COLO 205, with DU-145 and with EKVX was > 100 µM (inactive) in each case. In addition, the GI50 with HCC 2998, in the experiment on IGROV-1, in the experiment on KM12, in the experiment with MDA-N, with MOLT-4 and in the experiment on NCI-H522 was > 100 µM (inactive) each time. Besides, the GI50 with OVCAR-4, in the experiment on OVCAR-5, in the experiment on SF-268, with SK-MEL-5, with TK-10 and in the experiment with UACC-62 was > 100 µM (inactive) each time. In the experiment on UO-31, the GI50 is > 100 µM (inactive).

Consider `O=C1NC(=O)c2ccc([N+](=O)[O-])c3cccc1c23`, for which the GI50 was 14 µM (inactive) with 786-0; 20.8 µM (inactive) with A549; 14.9 µM (inactive) in the experiment with COLO 205; 34 µM (inactive) in the experiment with DU-145; 28.3 µM (inactive) with EKVX; 24.7 µM (inactive) with HCC 2998. The GI50 is 15.9 µM (inactive) in the experiment on IGROV-1; 12.4 µM (inactive) in the experiment with MDA-N; 2.01 µM (inactive) in the experiment on NCI-H522; 20 µM (inactive) in the experiment with OVCAR-4; 18.3 µM (inactive) in the experiment on OVCAR-5; 24.4 µM (inactive) with SF-268. For the same molecule, the GI50 in the experiment on SK-MEL-5 was 18.9 µM (inactive); in the experiment on SNB-75 it was 40.1 µM (inactive); with TK-10, 19.6 µM (inactive); with UACC-62 it was 13.9 µM (inactive); in the experiment with UO-31, 16.3 µM (inactive).

For the molecule `C/C1=C/C(C)CC(C)OC(=O)C(C)NC(=O)C(Cc2ccc(O)c(I)c2)N(C)C(=O)CNC(=O)C(C)C1` (stereo not drawn), the GI50 in the experiment with 786-0 is < 0.01 µM (active); in the experiment on A549 it was < 0.01 µM (active); in the experiment on CCRF-CEM, < 0.01 µM (active); in the experiment on COLO 205, < 0.01 µM (active); in the experiment on DU-145, 0.0643 µM (active); with EKVX, 0.0443 µM (active). The GI50 was < 0.01 µM (active) in the experiment on HCC 2998; < 0.01 µM (active) in the experiment on IGROV-1; < 0.01 µM (active) in the experiment on KM12; < 0.01 µM (active) in the experiment on MDA-N; < 0.0178 µM (active) in the experiment on MOLT-4; < 0.01 µM (active) in the experiment on NCI-H522. The GI50 in the experiment with OVCAR-4 was < 0.01 µM (active); in the experiment with OVCAR-5, 8.81 µM (inactive); with SF-268 it was < 0.0186 µM (active); in the experiment on SK-MEL-5, < 0.01 µM (active); with SNB-75, < 0.01 µM (active); in the experiment on TK-10, < 0.01 µM (active). The GI50 in the experiment with UO-31 was < 0.0109 µM (active).

`CCOc1ccc2ccc3cccnc3c2n1`: the GI50 was 66.2 µM (inactive) in the experiment with 786-0; 61 µM (inactive) with A549; 59 µM (inactive) in the experiment with CCRF-CEM; 28.7 µM (inactive) in the experiment on COLO 205; > 100 µM (inactive) with DU-145; 36.5 µM (inactive) in the experiment with EKVX. For the same molecule, the GI50 with HCC 2998 was 51.6 µM (inactive); with IGROV-1 it was 38.5 µM (inactive); in the experiment on KM12, 45.4 µM (inactive); in the experiment with MDA-N, > 100 µM (inactive); in the experiment with NCI-H522, > 100 µM (inactive); in the experiment on OVCAR-4, 69.2 µM (inactive). The GI50 with OVCAR-5 was 55.6 µM (inactive); in the experiment on SF-268 it was > 100 µM (inactive); in the experiment on SK-MEL-5, 32.7 µM (inactive); in the experiment on SNB-75, 85.9 µM (inactive); with TK-10, 34.2 µM (inactive); in the experiment with UACC-62 it was 27 µM (inactive). Also, in the experiment on UO-31, the GI50 was 64 µM (inactive).

Turning to `Cc1ccc(C(=O)/C=C2\Nc3ccccc3N=C2NC23CC4CC(CC(C4)C2)C3)cc1`, the GI50 in the experiment with 786-0 is > 10 µM (inactive); in the experiment on A549, > 10 µM (inactive); with CCRF-CEM, 1 µM (active); in the experiment on COLO 205, > 10 µM (inactive); in the experiment on DU-145, > 10 µM (inactive); with HCC 2998 it was > 10 µM (inactive). The GI50 in the experiment on IGROV-1 was > 10 µM (inactive); in the experiment with KM12 it was > 10 µM (inactive); in the experiment on MDA-N it was > 10 µM (inactive); in the experiment with MOLT-4 it was 7.8 µM (inactive); in the experiment on NCI-H522, > 10 µM (inactive); in the experiment on OVCAR-4 it was 7.66 µM (inactive). Moreover, the GI50 with OVCAR-5, with SF-268, with SK-MEL-5, in the experiment with SNB-75, with TK-10 and in the experiment on UACC-62 was > 10 µM (inactive) in each case.

For the molecule `COC(=O)c1c(OC(C)=O)ccc2c1c1c(n2C)C(=O)c2ccccc2C1=O`, the GI50 was 25.5 µM (inactive) in the experiment with 786-0; 20.7 µM (inactive) in the experiment on A549; 55.3 µM (inactive) in the experiment on COLO 205; 14.6 µM (inactive) in the experiment with DU-145; 28.8 µM (inactive) in the experiment on EKVX; 26.8 µM (inactive) in the experiment with HCC 2998. The GI50 in the experiment with IGROV-1 is 3.86 µM (inactive); with KM12 it was 29.1 µM (inactive); with MDA-N, 19 µM (inactive); with MOLT-4 it was 18.3 µM (inactive); with NCI-H522 it was 21.7 µM (inactive); with OVCAR-4, 28.6 µM (inactive). The GI50 in the experiment with OVCAR-5 is 34.3 µM (inactive); in the experiment with SF-268, 24.4 µM (inactive); with SK-MEL-5, 13.9 µM (inactive); in the experiment on SNB-75, 7.93 µM (inactive); in the experiment with TK-10, 31 µM (inactive); with UACC-62, 35.3 µM (inactive). Also, in the experiment on UO-31, the GI50 is 21 µM (inactive).

Turning to `CCOP(=O)(OCC)[C@H]1OC(C)(C)O[C@@H]1CO`, the GI50 in the experiment with 786-0, in the experiment with A549, in the experiment with CCRF-CEM, in the experiment with COLO 205, in the experiment on DU-145 and in the experiment with EKVX was > 100 µM (inactive) each time. Besides, the GI50 in the experiment on HCC 2998, in the experiment with IGROV-1, in the experiment with KM12, in the experiment on MDA-N, in the experiment with MOLT-4 and with NCI-H522 was > 100 µM (inactive) each time. In addition, the GI50 in the experiment with OVCAR-4, with OVCAR-5, in the experiment on SF-268, in the experiment with SK-MEL-5, in the experiment on TK-10 and with UACC-62 was > 100 µM (inactive) each time.

Turning to `CCn1c(=O)c2nc(SC)sc2n(-c2ccccc2)c1=O`, the GI50 with 786-0, with A549, in the experiment on CCRF-CEM, in the experiment on COLO 205, in the experiment with DU-145 and with HCC 2998 was > 100 µM (inactive) throughout. The GI50 in the experiment on IGROV-1, with KM12, in the experiment with MDA-N, with MOLT-4, in the experiment on NCI-H522 and in the experiment on OVCAR-4 was > 100 µM (inactive) throughout. The GI50 with OVCAR-5 is > 100 µM (inactive); in the experiment with SF-268, > 100 µM (inactive); with SK-MEL-5 it was > 100 µM (inactive); with SNB-75, > 100 µM (inactive); in the experiment with TK-10, > 100 µM (inactive); with UO-31 it was 26 µM (inactive).

For the molecule `CC(C)C1=CC23CCC4C(C)(C(=O)O)CCCC4(C)C2CC1C1C(=O)N(c2ccc(C(=O)O)cc2)C(=O)C13` (stereo not drawn), the GI50 in the experiment with 786-0, in the experiment on A549, in the experiment on COLO 205, with DU-145, with EKVX and with HCC 2998 was > 100 µM (inactive) in each case. The GI50 with IGROV-1, in the experiment with KM12, with MDA-N, in the experiment with MOLT-4, in the experiment with NCI-H522 and in the experiment on OVCAR-4 was > 100 µM (inactive) each time. Also, the GI50 with SF-268, in the experiment with SK-MEL-5, with SNB-75, with TK-10, in the experiment on UACC-62 and with UO-31 was > 100 µM (inactive) throughout.

For `COc1cc(C=O)ccc1O` [VANILLIN], the GI50 in the experiment on 786-0, with A549, in the experiment on CCRF-CEM, with COLO 205, with DU-145 and in the experiment with EKVX was > 100 µM (inactive) throughout. Also, the GI50 with HCC 2998, in the experiment with IGROV-1, in the experiment on KM12, in the experiment on MDA-N, in the experiment with MOLT-4 and with NCI-H522 was > 100 µM (inactive) in each case. In addition, the GI50 in the experiment with OVCAR-4, in the experiment on OVCAR-5, in the experiment on SF-268, with SK-MEL-5, with SNB-75 and in the experiment with TK-10 was > 100 µM (inactive) each time. In addition, the GI50 in the experiment on UO-31 is > 100 µM (inactive).
